From US20070025986A1, “Modulation of HCN channels by second messengers” (priority 2003, published 2007)
Where two headings read alike, the source gives them in different places. No end group written: not given here.

Experiments:
[1] = test system: native pacemaker channels (IH); conditions: cited from earlier work
HCN1 channel = assay: Two microelectrode voltage clamp (2MEV) of HCN1 and HCN1 mutants expressed in Xenopus oocytes; format: cell-based, mouse; conditions: forskolin 10 μM, 30 min, SQ-22536 300 μM, 3 hr
HCN2-R591E channel = biological target: T1, HCN2-R591E channel (Mus musculus, UniProt O88703, R591E); assay: Excised inside-out patch (IOP) clamp of HCN2-R591E after rundown, 4,5-PIP2 rescue; format: biochemical
T1 construct: expressed in transfected cells; host or cells: Xenopus oocytes (cRNA injection); excised inside-out patches
T1 sequence (O88703 1-863 R591E): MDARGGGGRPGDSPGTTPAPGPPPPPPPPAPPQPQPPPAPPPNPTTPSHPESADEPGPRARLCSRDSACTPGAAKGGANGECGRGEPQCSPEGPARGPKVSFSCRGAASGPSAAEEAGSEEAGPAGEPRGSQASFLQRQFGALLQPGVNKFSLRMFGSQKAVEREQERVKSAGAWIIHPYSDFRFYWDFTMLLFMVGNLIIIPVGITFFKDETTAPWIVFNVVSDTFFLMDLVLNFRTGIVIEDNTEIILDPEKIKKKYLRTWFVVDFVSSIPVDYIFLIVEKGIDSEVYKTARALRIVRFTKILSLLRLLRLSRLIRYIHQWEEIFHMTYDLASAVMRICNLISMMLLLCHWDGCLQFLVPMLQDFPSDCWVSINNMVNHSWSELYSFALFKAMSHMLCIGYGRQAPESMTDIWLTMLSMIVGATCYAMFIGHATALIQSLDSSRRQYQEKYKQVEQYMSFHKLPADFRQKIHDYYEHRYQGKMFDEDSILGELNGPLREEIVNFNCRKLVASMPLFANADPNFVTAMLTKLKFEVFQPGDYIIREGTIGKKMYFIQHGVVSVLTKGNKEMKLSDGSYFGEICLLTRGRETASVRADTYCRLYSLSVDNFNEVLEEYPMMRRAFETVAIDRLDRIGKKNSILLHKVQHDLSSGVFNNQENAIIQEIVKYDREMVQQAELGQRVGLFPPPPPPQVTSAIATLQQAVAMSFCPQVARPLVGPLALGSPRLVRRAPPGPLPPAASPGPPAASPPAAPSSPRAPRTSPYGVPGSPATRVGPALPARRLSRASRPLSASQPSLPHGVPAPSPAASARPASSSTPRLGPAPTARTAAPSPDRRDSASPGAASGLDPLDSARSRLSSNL
Protocol: Molecular Biology. […] Electrophysiology-General. […] Electrophysiology-Excised cell-free inside-out patch clamp recordings. […] When cAMP was applied, NaCl was replaced with equivalent amount of cAMP. In experiments where 4,5-PIP2, kinase inhibitors or other compounds were included, stock solutions of the compounds dissolved in either DMSO or H2O were added to the recording solutions to an appropriate final concentration. […] It was routinely tested and confirmed that addition of the solvents alone was without effect. Analysis of electrophysiological recordings. […] An HCN2-[…] construct was expressed in Xenopus oocytes. 2 MEV-clamp recording was performed to measure the gating activity of the HCN2-[…] channel in the intact Xenopus oocytes. IOP-clamp was performed to measure the gating activity of the HCN2-[…] channel under a “rundown” condition. IOP-clamp was also performed in the presence of 4,5-PIP2 to detect the effect of 4,5-PIP2 on the gating activity of the HCN2-[…] channel under a “rundown” condition.

HCN1-ΔNvΔC channel = biological target: T2, HCN1-ΔNvΔC channel (Mus musculus, UniProt O88704, A73M); assay: Excised inside-out patch (IOP) clamp of HCN1-ΔNvΔC and basic-residue alanine mutants with 4,5-PIP2; format: biochemical
T2 construct: HCN1-ΔNvΔCterm (amino acid positions 73 to 390 of mHCN1); expressed in transfected cells; host or cells: Xenopus oocytes (cRNA injection); excised inside-out patches
T2 sequence (O88704 73-390 A73M): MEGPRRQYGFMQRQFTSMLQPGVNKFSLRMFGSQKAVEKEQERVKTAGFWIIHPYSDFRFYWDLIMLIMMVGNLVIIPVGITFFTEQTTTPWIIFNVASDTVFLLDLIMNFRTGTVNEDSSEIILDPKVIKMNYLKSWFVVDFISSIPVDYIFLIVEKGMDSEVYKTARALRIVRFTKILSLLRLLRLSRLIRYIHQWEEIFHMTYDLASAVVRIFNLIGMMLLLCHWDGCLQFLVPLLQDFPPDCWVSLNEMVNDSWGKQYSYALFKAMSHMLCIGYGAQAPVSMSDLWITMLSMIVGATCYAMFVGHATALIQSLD
Protocol: Molecular Biology. […] Electrophysiology-General. […] Electrophysiology-Excised cell-free inside-out patch clamp recordings. […] When cAMP was applied, NaCl was replaced with equivalent amount of cAMP. In experiments where 4,5-PIP2, kinase inhibitors or other compounds were included, stock solutions of the compounds dissolved in either DMSO or H2O were added to the recording solutions to an appropriate final concentration. […] It was routinely tested and confirmed that addition of the solvents alone was without effect. Analysis of electrophysiological recordings. […] IOP-clamp was performed to measure the gating activity of the wild type and mutant channels under a “rundown” condition. […] The minimal 4,5-PIP2 responsive mouse HCN1 channel […] of mHCN1), were further mutated to produce the following constructs in which the basic amino acid residues Arginine, Lysine and Histidine are replaced […]), NT2 […], and […]), NT3 […], and […]), NT4 […], and […], and […], and […]), and […]). All individual point mutations were also constructed. The mutants were expressed in Xenopus oocytes. IOP clamp was performed with the mutant channels in the presence and absence of 5 μM 4,5-PIP2. […] Facilitation of HCN channel gating may be effected by direct interaction between 4,5-PIP2 and basic amino acid residues in the cytoplasmic region of the HCN channel. See hypothesis in the legend of FIG. 6.

[2] = ADn: Thalamic anterior dorsal relay neurons
[3] = CP: Cerebellar purkinje neurons
[4] = DRG: Dorsal root ganglion neurons
[5] = CA1: CA1 pyramidal neurons or unidentified CA1 cells
[6] = ORN: Olfactory receptor neurons
[7] = MTNB: medial nucleus of the trapezoid body
[8] = SO: CA1 stratum oriens-alveus interneuron

Molecule: NCCc1c[nH]c2ccc(O)cc12 [5-HT]
- Δ V1/2 [1, 2]: +15 mV
- Δ V1/2 ([1]; BSMN: Brainstem motor neurons): +6 mV BSMN
- Δ IMAX ([1]; CMN: crustacean motor neurons): +20%
- Δ V1/2 ([1]; CMN: crustacean motor neurons): +10 mV
- Δ V1/2 [1, 3]: −8 mV
- Δ V1/2 [1, 4]: +6 mV
- Δ IMAX ([1]; FM: Facial motor neurons): +25%
- Δ IMAX ([1]; PH: Prepositus Hyperglossi neurons): +30%
- Δ IMAX ([1]; ST: Solitary tract neurons): +100% ST
- Δ IMAX ([1]; TR: thalamic relay): +20%
- Δ V1/2 ([1]; TR: thalamic relay): +5 mV
- Δ V1/2 ([1]; VT: Ventral tegmental neurons): −7 m

Molecule: NCCc1c[nH]c2ccc(C(N)=O)cc12 [5CT]
- Δ V1/2 [1, 2]: +15 mV
- Δ IMAX [1, 5]: +50%
- Δ V1/2 [1, 5]: +5 mV CA1
- Δ V1/2 [1, 4]: +6 mV

Molecule: CCCN(CCC)C1CCc2cccc(O)c2C1 (stereo not shown) [8-OH-DPAT]
- Δ IMAX ([1]; ST: Solitary tract neurons): +100% ST

Molecule: Nc1ncnc2c1ncn2[C@@H]1O[C@H](CO)[C@@H](O)[C@H]1O [Adenosine]
- Δ V1/2 [1, 4]: −7 mV
- Δ V1/2 ([1]; SA: sinoatrial node): −6 mV

Molecule: NCC(CC(=O)O)c1ccc(Cl)cc1 (stereo not shown) [Baclofen]
- Δ IMAX ([1]; SNZC: Substantia nigra zona compacta): −11%
- Δ IMAX ([1]; VT: Ventral tegmental neurons): −20%

Molecule: Clc1cccc(Cl)c1N=C1NCCN1 [Clonidine]
- Δ IMAX [1, 4]: HG, −40% DRG
- Δ V1/2 ([1]; HG: Hypoglossal motor neurons): −4 mV HG

Molecule: COc1cc(CC(C)N)c(OC)cc1I (stereo not shown) [DOI]
- Δ V1/2 [1, 3]: −8 mV
- Δ IMAX ([1]; FM: Facial motor neurons): +25%
- Δ V1/2 ([1]; VT: Ventral tegmental neurons): −7 m

Molecule: NCCc1ccc(O)c(O)c1 [Dopamine]
- Δ IMAX [1, 6]: −50%
- Δ V1/2 [1, 6]: −9 mV
- Δ V1/2 ([1]; PG: Pyloric ganglion motor neurons): +20 mV PG
- Δ IMAX ([1]; ROD: Rod photoreceptors): −30% ROD
- Δ V1/2 ([1]; ROD: Rod photoreceptors): −17 mV
- Δ IMAX ([1]; VT: Ventral tegmental neurons): −20%

Molecule: CC(C)NCC(O)c1ccc(O)c(O)c1 (stereo not shown) [Isoproterenol]
- Δ IMAX ([1]; AT: atrial myocyte): +90%
- Δ V1/2 ([1]; AT: atrial myocyte): +11 mV
- Δ V1/2 ([1]; BC: cerebllar basket cell): +6 mV
- Δ IMAX ([1]; ECM: Embryonic cardiomyocytes): +65%
- Δ V1/2 [1, 7]: +12 mV
- Δ IMAX [1, 8]: +30%
- Δ IMAX ([1]; TR: thalamic relay): ECM; +31% TR; BC;
- Δ V1/2 ([1]; TR: thalamic relay): +5 mV

Molecule: OC[C@H]1O[C@@H](n2cnc3c(NC4CCCCC4)ncnc32)[C@H](O)[C@@H]1O [N6-CHA]
- Δ V1/2 [1, 4]: −7 mV
- Δ V1/2 ([1]; SA: sinoatrial node): −6 mV

Molecule: OC[C@H]1O[C@@H](n2cnc3c(NC4CCCC4)ncnc32)[C@H](O)[C@@H]1O [N6-CPA]
- Δ V1/2 [1, 4]: −7 mV
- Δ V1/2 ([1]; SA: sinoatrial node): −6 mV

Molecule: NC[C@H](O)c1ccc(O)c(O)c1 [NorE]
- Δ IMAX ([1]; AT: atrial myocyte): +90%
- Δ V1/2 ([1]; AT: atrial myocyte): +11 mV
- Δ V1/2 ([1]; BC: cerebllar basket cell): +6 mV
- Δ IMAX ([1]; ECM: Embryonic cardiomyocytes): +65%
- Δ V1/2 [1, 7]: +12 mV
- Δ IMAX [1, 8]: +30%
- Δ IMAX ([1]; TR: thalamic relay): ECM; +31% TR; BC;
- Δ V1/2 ([1]; TR: thalamic relay): +5 mV

Molecule: CCCCCCCC/C=C/CCCCCCCC(=O)OCC(CO)OC(C)=O (stereo not shown) [OAG]
- Δ IMAX ([1]; SNPC: Substantia nigra pars compacta): −49% SNPC

Molecule: CCCCC[C@H](O)/C=C/[C@H]1[C@H](O)CC(=O)[C@@H]1C/C=C\CCCC(=O)O [PGE2]
- Δ IMAX ([1]; NG: Nodose ganglion): +18% NG, TG
- Δ V1/2 ([1]; NG: Nodose ganglion): +6 mV NG, TG
- Δ IMAX ([1]; TG: Trigeminal ganglion): +18% NG, TG
- Δ V1/2 ([1]; TG: Trigeminal ganglion): +6 mV NG, TG

Molecule: Nc1ncnc2c1ncn2C1CCCO1 (stereo not shown) [SQ-22536]
- Effect on gating (HCN1 channel; HCN1-R538E): not altered
- Effect on V1/2 of activation (HCN1 channel; wild type HCN1): inhibited

Molecule: C[N+](C)(C)CCOC(N)=O [carbachol]
- Δ IMAX ([1]; ECM: Embryonic cardiomyocytes): −41%
- Δ IMAX ([1]; LGN): CA1; +43% LGN
- Δ V1/2 ([1]; LGN): CA1; +5 mV LGN
- Δ V1/2 ([1]; PF: cardiac purkinje fibre): −8 mV SA, PF
- Δ V1/2 ([1]; SA: sinoatrial node): −8 mV SA, PF

Molecule: AT-II: agonist listed for angiotensin AT½ receptor (DRVYIHPF; Angiotensin-2; UniProt P01019 25-32, looked up)
- Δ V1/2 ([1]; PVN: Hypothalamic paraventricular neurons): +8m PVN

Molecule: EGF: agonist listed for EGF receptor
- Δ IMAX ([1]; SA: sinoatrial node): +23% SA

Molecule: PACAP38: agonist listed for PAC1 receptor (HSDGIFTDSYSRYRKQMAVKKYLAAVLGKRYKQRVKNK; ends and bridges not checked; UniProt P18509 132-169, looked up)
- Δ IMAX ([1]; TR: thalamic relay): +30% TR
- Δ V1/2 ([1]; TR: thalamic relay): +7 mV TR

Molecule: Phosphatidyl-inositol 4,5-bisphosphate [4,5-PIP2]
- Effect on gating activity under rundown condition (HCN2-R591E channel; IOP-clamp): restore the gating activity
- Effect on gating slope (HCN2-R591E channel; IOP-clamp after rundown): restores the more shallow gating slope
- Mean shift in V1/2 contributed by 4,5-PIP2 to intact cell gating (HCN2-R591E channel; IOP-clamp after rundown): ~20 mV
- Effect on gating of rundown channels (HCN1-ΔNvΔC channel; HCN1-ΔNvΔC, 5 uM 4,5-PIP2, 5 min): redepolarizes gating
- Response to 4,5-PIP2 facilitation of channel gating (HCN1-ΔNvΔC channel; mutants NT1, NT2 and NT3 of HCN1-ΔNvΔCterm, 5 μM 4,5-PIP2): reduced response
- Response (difference in V1/2) to 4,5-PIP2 versus wild type (HCN1-ΔNvΔC channel; mutants R59A, S23-3A, R112A, S45-3A of HCN1-ΔNvΔC, 5 uM 4,5-PIP2): not different from wild type

Molecule: Sub P: agonist listed for tachykinin NK 1/2/3 receptor (RPKPQQFFGLM; ends and bridges not checked; UniProt P20366 58-68, looked up)
- Δ V1/2 ([1]; NG: Nodose ganglion): −20 mV. NG

Molecule: VIP: agonist listed for PAC1 receptor (HSDAVFTDNYTRLRKQMAVKKYLNSILN; ends and bridges not checked; UniProt P01282 125-152, looked up)
- Δ IMAX ([1]; TR: thalamic relay): +30% TR
- Δ V1/2 ([1]; TR: thalamic relay): +7 mV TR

B1: BDNF: neurotrophin, agonist listed for TrkA/B/C, P75 (protein, UniProt P23560 19-247, looked up)
Neurotrophic factor BDNF …: APMKEANIRGQGGLAYPGVRTHGTLESVNGPKAGSRGLTSLADTFEHVIEELLDEDQKVRPNEENNKDADLYTSRVMLSSQVPLEPPLLFLLEEYKNYLDAANMSMRVRRHSDPARRGELSVCDSISEWVTAADKKTAVDMSGGTVTVLEKVPVSKGQLKQYFYETKCNPMGYTKEGCRGIDKRHWNSQCRTTQSYVRALTMDSKKRIGWRFIRIDTSCVCTLTIKRGR
- Δ IMAX ([1]; PBC: Pre-botzinger complex): −46% PBC
- Δ V1/2 ([1]; PBC: Pre-botzinger complex): −17 mV PBC
